pIC50: −log10 of the molar value. Where two headings read alike, the source gives them in different places.

The target of this test is T1, EGF-R (Homo sapiens, UniProt P00533).
T1 construct: another EGFR over-expressing human epidermoid carcinoma cell line, A431 (ATCC CRL 1555); endogenous in cells; host or cells: A431 (ATCC CRL 1555)
The experiment in a line: Cell-free screening assay for EGF-R kinase activity (EGFR immobilized from A431 lysate). Type of test: biochemical. As to conditions: read-out: IC50, EGF-R kinase activity in a cell free system. As for the experimental part: This assay provides a method for measuring the effects of test substances on the kinase activity of specific targets in a cell-free system. The target substrate is isolated from cell lysates by immobilization in microtiter plate wells coated with anti-substrate antibody. Following addition of the test substance, ATP and a bivalent cation are added to the wells to initiate the kinase-reaction. Concentrations of ATP can be varied to assess whether a test compound competes for ATP or substrate interaction. […] Phosphorylation of tyrosine residues on the immobilized target is then detected using antiphosphotyrosine antiserum.
The materials and reagents used are described in Section 6.1 with the exception that the cells used to prepare the cell lysate were another EGFR over-expressing human epidermoid carcinoma cell line, A431 (ATCC CRL 1555). Test substances were obtained from LC Service Corp (Woburn, Mass.).
Preparation of the assay plates was performed as described in Section 6.2.1.
Cells (A431) were grown to 80-90% confluency in DMEM (Gibco) plus 10% calf serum then washed twice with PBS. HNTG was added and the dish place on ice for five minutes. […] The cleared lysate can be stored at -80 C until used.
Seven μg of cell lysate was added to each well of a prepared assay plate plus PBS to make a final volume of 150 μl. […] The plate was incubated for 30 minutes, shaking, at room temperature.
The kinase reaction was initiated by the addition of 15 μl of ATP/Mn mix (in 50 mM MnCL2, final concentration of ATP 1 μM, 3 μM or 10 μM) for a total volume of […]. The plate was incubated for 5 minutes at room temperature, shaking, then washed 5 times with TBST. The amount of phosphorylation present was measured as described in Section 6.2.3.

T1 sequence (P00533 25-1210): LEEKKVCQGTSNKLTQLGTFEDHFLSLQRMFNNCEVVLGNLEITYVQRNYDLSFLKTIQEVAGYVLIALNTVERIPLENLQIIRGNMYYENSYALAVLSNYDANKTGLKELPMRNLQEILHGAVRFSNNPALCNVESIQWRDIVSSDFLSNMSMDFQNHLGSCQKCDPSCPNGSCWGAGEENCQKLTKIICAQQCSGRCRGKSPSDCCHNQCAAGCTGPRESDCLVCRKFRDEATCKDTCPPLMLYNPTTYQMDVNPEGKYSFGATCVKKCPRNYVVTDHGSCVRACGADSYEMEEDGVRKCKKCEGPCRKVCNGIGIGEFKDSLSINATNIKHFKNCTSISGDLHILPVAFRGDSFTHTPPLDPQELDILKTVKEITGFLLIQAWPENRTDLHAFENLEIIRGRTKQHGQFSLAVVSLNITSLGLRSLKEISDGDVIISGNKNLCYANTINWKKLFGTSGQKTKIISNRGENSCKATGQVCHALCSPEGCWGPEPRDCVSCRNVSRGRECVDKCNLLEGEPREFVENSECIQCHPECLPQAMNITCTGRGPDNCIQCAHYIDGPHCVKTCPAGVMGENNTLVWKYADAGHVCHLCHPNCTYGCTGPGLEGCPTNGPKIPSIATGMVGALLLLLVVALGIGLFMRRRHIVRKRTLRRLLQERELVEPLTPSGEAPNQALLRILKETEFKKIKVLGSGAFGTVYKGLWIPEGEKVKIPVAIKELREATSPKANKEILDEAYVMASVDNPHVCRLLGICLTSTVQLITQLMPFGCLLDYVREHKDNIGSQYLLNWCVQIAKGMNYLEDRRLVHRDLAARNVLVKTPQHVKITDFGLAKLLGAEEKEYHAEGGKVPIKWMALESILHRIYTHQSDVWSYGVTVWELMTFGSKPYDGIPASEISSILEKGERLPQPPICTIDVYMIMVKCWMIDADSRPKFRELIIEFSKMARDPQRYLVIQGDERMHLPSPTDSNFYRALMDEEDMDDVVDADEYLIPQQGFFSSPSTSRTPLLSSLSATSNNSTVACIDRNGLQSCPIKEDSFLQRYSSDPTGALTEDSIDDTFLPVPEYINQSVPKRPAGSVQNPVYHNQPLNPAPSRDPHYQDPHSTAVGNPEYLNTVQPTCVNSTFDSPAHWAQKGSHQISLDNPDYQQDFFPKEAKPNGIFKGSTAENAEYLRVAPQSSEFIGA

By pIC50 is commonly meant −log10 of the IC50, conventionally taken in molar units. Consider `COC1C=CC=C(C)C(=O)NC2=CC(=O)C=C(C2=O)C(OC)C(C)CC(OC)C(OC)C(C)C=C(C)C1OC(N)=O` (stereo not shown) [Herbimycin A], for which, where the note is “ATP conc. 1 μM”, the pIC50 is under 4.00.

`O=C(O)c1cc(N(Cc2ccccc2O)Cc2cc(O)ccc2O)ccc1O` [Lavendustin A]: the pIC50 (ATP conc. 1 μM) was 7.10, the pIC50 (ATP conc. 3 μM) is 7.00 and the pIC50 (ATP conc. 10 μM) is 4.26.

Values taken from US5763198A, “Screening assays for compounds” (Sugen, Inc., priority 1994, dated 1998).
